Results: US20080050319A1, “Benzylidene-Alpha-Dicarbonyl Compounds as Novel Uv Absorbers” (SYMRISE GMBH & CO. KG, priority 2004, published 2008)

Key:
Assay type in all cases: physicochemical
[1] = Photostability test with Suntester, HPLC analysis of UV filter mixtures
Experimental: Photostability tests were carried out with a Suntester from Heräus. The irradiation intensity in these was 80 W/m^2, based on the UV range of 290-400 nm. The irradiation time was 4 h in total, the photodegradation of the UV filters being measured by HPLC analyses after an irradiation time of 2 and 4 h. The irradiations of the UV filter mixtures were carried out in an isopropyl myristate solution. The percentage values relate to the value measured without irradiation (decrease in the concentration).

[2] = UV absorption properties (extinction); set-up: unit not given here
Source text: EXAMPLES FOR THE PREPARATION AND THE ABSORPTION PROPERTIES

[3] = Solubility in cosmetic oils; conditions: per cent by weight
Source text: Examples of Solubility (In Per Cent By Weight)
(data in per cent by weight)

[4] = 2 h, Experiment 1: 3% OMC + 1% DMDBM + 2% A1 in isopropyl myristate
[5] = 2 h, Experiment 2: 3% OMC + 1% DMDBM + 2% A2 in isopropyl myristate
[6] = 2 h, Experiment 3: 3% OMC + 1% DMDBM + 2% A3 in isopropyl myristate
[7] = 2 h, Experiment 4: 3% OMC + 1% DMDBM + 2% B1 in isopropyl myristate
[8] = 2 h, Experiment 5: 3% OMC + 1% DMDBM + 2% B2 in isopropyl myristate
[9] = 2 h, Experiment 6: 3% OMC + 1% DMDBM + 2% B3 in isopropyl myristate
[10] = 2 h irradiation, 80 W/m2, reference mixture 3% OMC + 1% DMDBM in isopropyl myristate
[11] = 4 h, Experiment 1: 3% OMC + 1% DMDBM + 2% A1 in isopropyl myristate
[12] = 4 h, Experiment 2: 3% OMC + 1% DMDBM + 2% A2 in isopropyl myristate
[13] = 4 h, Experiment 3: 3% OMC + 1% DMDBM + 2% A3 in isopropyl myristate
[14] = 4 h, Experiment 4: 3% OMC + 1% DMDBM + 2% B1 in isopropyl myristate
[15] = 4 h, Experiment 5: 3% OMC + 1% DMDBM + 2% B2 in isopropyl myristate
[16] = 4 h, Experiment 6: 3% OMC + 1% DMDBM + 2% B3 in isopropyl myristate
[17] = 4 h irradiation, 80 W/m2, reference mixture 3% OMC + 1% DMDBM in isopropyl myristate

COc1ccc(C(=O)CC(=O)c2ccc(C(C)(C)C)cc2)cc1 [DMDBM, 4-dimethylethyl-4′-methoxydibenzoylmethane]
photodegradation (decrease in the concentration) [1, 4]: 24% | photodegradation (decrease in the concentration) [1, 5]: 20% | photodegradation (decrease in the concentration) [1, 6]: 20% | photodegradation (decrease in the concentration) [1, 7]: 27% | photodegradation (decrease in the concentration) [1, 8]: 27% | photodegradation (decrease in the concentration) [1, 9]: 27% | photodegradation (decrease in the concentration) [1, 10]: 67% | photodegradation (decrease in the concentration) [1, 11]: 38% | photodegradation (decrease in the concentration) [1, 12]: 28% | photodegradation (decrease in the concentration) [1, 13]: 28% | photodegradation (decrease in the concentration) [1, 14]: 48% | photodegradation (decrease in the concentration) [1, 15]: 60% | photodegradation (decrease in the concentration) [1, 16]: 52% | photodegradation (decrease in the concentration) [1, 17]: 87%

COc1ccc(/C=C(/C(=O)OC(C)C)C(=O)c2ccccc2)cc1 [Example 1]
Extinction ([2]; at 316 nm): 640 | Solubility in Isopropyl myristate [3]: >10% | Solubility in Miglyol -812 [3]: >10% | Solubility in Witconol-TN [3]: >10%

CCCOC(=O)/C(=C/c1ccc(OC)cc1)C(=O)c1ccccc1 [Example 2]
Extinction ([2]; at 316 nm): 660 | Solubility in Isopropyl myristate [3]: >10% | Solubility in Miglyol -812 [3]: >10% | Solubility in Witconol-TN [3]: >10%

COc1ccc(/C=C(/C(=O)OCC(C)C)C(=O)c2ccccc2)cc1 [Example 3]
Extinction ([2]; at 316 nm): 640 | Solubility in Isopropyl myristate [3]: >20% | Solubility in Miglyol -812 [3]: >20% | Solubility in Witconol-TN [3]: >20%

CCCCOC(=O)/C(=C/c1ccc(OC)cc1)C(=O)c1ccccc1 [Example 4]
Extinction ([2]; at 316 nm): 660 | photodegradation (decrease in the concentration) [1, 4]: 0% | photodegradation (decrease in the concentration) [1, 11]: 0% | photostability (in words) ([1]; in mixture with OMC and DMDBM, compared with the comparison measurement): outstanding photostability | Solubility in Isopropyl myristate [3]: >20% | Solubility in Miglyol -812 [3]: >20% | Solubility in Witconol-TN [3]: >20%

COc1ccc(/C=C(/C(=O)OCCC(C)C)C(=O)c2ccccc2)cc1 [Example 5]
Extinction ([2]; at 316 nm): 630 | Solubility in Isopropyl myristate [3]: >20% | Solubility in Miglyol -812 [3]: >20% | Solubility in Witconol-TN [3]: >20%

CCOC(=O)/C(=C/c1ccc(OC)cc1)C(=O)C1CCCCC1 [Example 6]
Extinction ([2]; at 316 nm): 700

CCOC(=O)/C(=C/c1ccc(C)cc1)C(=O)c1ccccc1 [Example 7]
Extinction ([2]; at 292 nm): 690

COc1ccc(/C=C(/C(C)=O)C(=O)c2ccccc2)cc1 [Example 8]
Extinction ([2]; at 323 nm, pure Z isomer): 816

CCOC(=O)/C(=C/c1ccc(OC)cc1)C(=O)c1ccc(C)cc1 [Example 9]
Extinction ([2]; at 316 nm): 660

CCOC(=O)/C(=C/c1ccc(OC)cc1)C(=O)c1ccccc1 [Example A2]
photodegradation (decrease in the concentration) [1, 6]: 0% | photodegradation (decrease in the concentration) [1, 13]: 0%

COc1ccc(/C=C(/C(C)=O)C(=O)c2ccccc2)cc1 [Example A2]
photodegradation (decrease in the concentration) [1, 5]: 3% | photodegradation (decrease in the concentration) [1, 12]: 3% | Solubility in Isopropyl myristate [3]: <10% | Solubility in Miglyol -812 [3]: <10% | Solubility in Witconol-TN [3]: <10%

CCOC(=O)/C(=C/c1ccc(OC)cc1)C(=O)c1ccccc1 [Example A3]
Solubility in Isopropyl myristate [3]: >20% | Solubility in Miglyol -812 [3]: >20% | Solubility in Witconol-TN [3]: >20%

CCOC(=O)C(=Cc1ccc(OC)cc1)C(=O)OCC [Example B2]
photodegradation (decrease in the concentration) [1, 8]: 2% | photodegradation (decrease in the concentration) [1, 15]: 7%

COc1ccc(C=C(C(C)=O)C(C)=O)cc1 [Example B3]
photodegradation (decrease in the concentration) [1, 9]: 0% | photodegradation (decrease in the concentration) [1, 16]: 8%

CCCCC(CC)COC(=O)C=Cc1ccc(OC)cc1 (stereo not drawn) [OMC, octyl methoxycinnamate]
photodegradation (decrease in the concentration) [1, 4]: 12% | photodegradation (decrease in the concentration) [1, 5]: 12% | photodegradation (decrease in the concentration) [1, 6]: 11% | photodegradation (decrease in the concentration) [1, 7]: 11% | photodegradation (decrease in the concentration) [1, 8]: 15% | photodegradation (decrease in the concentration) [1, 9]: 13% | photodegradation (decrease in the concentration) [1, 10]: 58% | photodegradation (decrease in the concentration) [1, 11]: 17% | photodegradation (decrease in the concentration) [1, 12]: 17% | photodegradation (decrease in the concentration) [1, 13]: 17% | photodegradation (decrease in the concentration) [1, 14]: 18% | photodegradation (decrease in the concentration) [1, 15]: 30% | photodegradation (decrease in the concentration) [1, 16]: 25% | photodegradation (decrease in the concentration) [1, 17]: 76%
